# Laboratory results from patent US8524634B2, “Seed treatment with combinations of pyrethrins/pyrethroids and clothianidin” (priority 2000, dated 2013).
# Key:
# Format in all cases: in vivo
# corn plants = experiment: Vigor rating of corn plants at 12 DAP as indication of phytotoxicity from seed or soil treatment (Reference Example 1); conditions: rating 1 extremely low vigor, 10 highest
# Protocol: (§1) A lambda-cyhalothrin seed treatment formulation was prepared by diluting the WARRIOR® T insecticide (Zeneca Ag Products, Wilmington, Del.), which contains 11.4% lambda-cyhalothrin as the active ingredient, into water as a carrier. This formulation was applied for one minute at room temperature to twenty-five grams of Pioneer corn seed (Cultivar PN3394) in a rotostatic seed treater at a rate of 125 g, 250 g or 500 g active ingredient (Al) to 100 kg seed. The treated seeds were allowed to sit uncapped for four to twenty-four hours before planting.
# (§2) Treated and untreated seeds (Pioneer hybrid PN3394) were planted in a soil mix consisting of Dupo silt loam, 30% Perlite, 20% coarse sand (WB-10 grade) in six groups of tubs (20 in. L×15 in. W×8 in. D). Twelve seeds were planted per tub and three tubs were planted for each treatment regimen. Soil applications of FORCE® 3GR, which contains 3% tefluthrin granule as the active ingredient, were used for two sets of tubs containing untreated seeds. The FORCE 3GR was applied either in-furrow or incorporated into a 5 inch band on the soil surface at the time of planting. The tubs were overhead irrigated until the plants were infested with black cutworm larvae.
# At twelve days after planting (DAP) but before infestation, the overall health of each plant was rated by looking at emergence, height and appearance. This vigor rating gives an indication of any phytotoxicity from the seed or soil treatment. A rating of 1 indicates extremely low. vigor while 10 is the highest vigor rating.
# black cutworm larvae [1] = experiment: Black cutworm feeding damage on corn: lambda-cyhalothrin seed treatment vs tefluthrin soil granular treatments (Reference Example 1); conditions: for Plant Defol. 3 DAI / Plant Defol. 7 DAI / Plant Defol. 10 DAI: rating 1=no damage, 10=complete defoliation
# Protocol: This example compares the efficacy of seed treatment with lambda-cyhalothrin (CAS #91465-08-6) to soil granular treatments with tefluthrin (CAS #79538-32-2) against feeding damage by black cutworm larvae on shoots and foliage.
# as §1, §2
# The rate of application for the FORCE 3GR was reported in units of grams of the active ingredient per hectare (g/ha), while the rate of application of the WARRIOR T to the seeds was reported in units of grams of the active ingredient per 100 kilograms of the seeds (g/100 kg). Although the conversion of one of these units to the other will vary somewhat according to the type of seed that is being used, the size and weight of the seed, and the density of planting that is used—among other things—an approximate conversion for corn seed can be carried out as follows. Assuming a seed application rate of lambda cyhalothrin of, for example, 125 g/100 kg of seed and a planting density of 15 lbs seed/ac, about 14.7 acres can be planted with 100 kg of the seed. This is an effective application rate of about 8.5 g of lambda cyhalthrin per acre. At 2.47 ac/ha, the seed treatment level of 125 g/100 kg is approximately equivalent to a surface banding treatment at about 21 g/ha.
# The corn plants were infested at 12 DAP, which corresponds to late growth stage V1 by placing two black cutworm larvae at ¾ instar on the soil surface near the base of the plant. Plants were rated 3, 7 and 10 days after infestation (DAI) for the number of cut plants, as well as damage from leaf feeding. The percent stand reduction due to plant cutting was calculated by dividing the number of cut plants into the number of plants present at infestation. The foliar feeding injury was evaluated using a rating scale of 1=no damage and 10=complete defoliation.
# black cutworm larvae [2] = experiment: Protection of corn plants against black cutworm damage by seed treatment with tefluthrin, clothianidin and combinations; Colby synergy (Example 2); conditions: for STAND REDUCTION (% at 10 days): 10 DAI; for Percent of Control: stand reduction as percent of untreated control
# Protocol: This example illustrates the efficacy of corn seed treatment with a combination of tefluthrin and clothianidin against plant damage by black cutworm.
# Seed treatment formulations were prepared from RAZE® 2.5 FS formulation (available from Wilbur-Ellis Co.) containing 26.8% tefluthrin, and clothianidin, (E)-(N-[(2-chloro-5-thiazolyl)methyl]-N′-methyl-N″-nitroguanidine; CAS Registry number 210880-92-5. In addition, separate seed treatment formulations were prepared from each of the two insecticides alone. Corn seed was prepared and treated as described in Reference Example 1, except that the treatment levels of the active ingredients on the seeds was as shown in Table 3. Treated and untreated seeds were planted in tubs and cultivated as described in Example 1. The tubs were overhead irrigated until the plants were infested with black cutworm larvae.
# The corn plants were infested at 12 DAP, as described in Reference Example 1, Plants were rated at 10 days after infestation (DAI) for the number of cut plants. The percent stand reduction due to plant cutting was calculated by dividing the number of cut plants into the number of plants present at infestation.
# Whether a combination of insecticides provided synergy in protection against cutworm damage was calculated as described by Colby, Robert. S., in Weeds, 15(1):20-22 (1967). The threshold value (stated as % of control) for synergy of a combination was calculated as =(% of control for treatment A)*(% of control for treatment B)/100(n−1); where n=number of active ingredients in combination. A measured % of control value that is less than the threshold value indicates synergy of the combination. Threshold values for synergy were calculated for each of the combinations of Table 3, and the threshold values for synergy of combinations of the active ingredients at various levels are shown in Table 4.
# [3] = seed treatment 125 g/100 kg seed
# [4] = seed treatment 250 g/100 kg seed
# [5] = seed treatment 500 g/100 kg seed
smiles,measurement,setting,value
"Cc1c(F)c(F)c(COC(=O)[C@@H]2[C@H](/C=C(\Cl)C(F)(F)F)C2(C)C)c(F)c1F (racemic) [Tefluthrin, (2,3,5,6-tetrafluoro-4-methylphenyl)-methyl-(1 alpha, 3 alpha)-(Z)-(±)-3-(2-chloro-3,3,3-trifluoro-1-propenyl)-2,2-dimethylcyclopropanecarboxylate]",Vigor at 12 DAP,corn plants; soil granule (FORCE 3GR) banded 30 g/ha,8.7
same,Vigor at 12 DAP,corn plants; soil granule (FORCE 3GR) in-furrow 30 g/ha,9.0
same,Plant Defol. 3 DAI,black cutworm larvae [1]; banded 30 g/ha (FORCE 3GR),1.7
same,% Stand Reduct'n 7 DAI,black cutworm larvae [1]; banded 30 g/ha (FORCE 3GR),0.0%
same,Plant Defol. 7 DAI,black cutworm larvae [1]; banded 30 g/ha (FORCE 3GR),1.7
same,% Stand Reduct'n 10 DAI,black cutworm larvae [1]; banded 30 g/ha (FORCE 3GR),0.0%
same,Plant Defol. 10 DAI,black cutworm larvae [1]; banded 30 g/ha (FORCE 3GR),0.3
same,% Stand Reduct'n 3 DAI,"black cutworm larvae [1]; banded 30 g/ha (FORCE 3GR, 5 inch soil surface band)",0.0%
same,Plant Defol. 3 DAI,black cutworm larvae [1]; in-furrow 30 g/ha (FORCE 3GR),5.0
same,% Stand Reduct'n 7 DAI,black cutworm larvae [1]; in-furrow 30 g/ha (FORCE 3GR),48.0%
same,Plant Defol. 7 DAI,black cutworm larvae [1]; in-furrow 30 g/ha (FORCE 3GR),6.0
same,% Stand Reduct'n 10 DAI,black cutworm larvae [1]; in-furrow 30 g/ha (FORCE 3GR),48.0%
same,Plant Defol. 10 DAI,black cutworm larvae [1]; in-furrow 30 g/ha (FORCE 3GR),5.3
"CN/C(=N\[N+](=O)[O-])NCc1cnc(Cl)s1 [Clothianidin, (E)-1-(2-chloro-1,3-thiazol-5-ylmethyl)-3-methyl-2-nitroguanidine]",STAND REDUCTION (% at 10 days),black cutworm larvae [2]; seed treatment clothianidin 50 gm/100 kg seed,61.15%
same,STAND REDUCTION (% at 10 days),black cutworm larvae [2]; seed treatment clothianidin 100 gm/100 kg seed,34.38%
same,Percent of Control,black cutworm larvae [2]; clothianidin 50 gm/100 kg seed,61.2%
same,Percent of Control,black cutworm larvae [2]; clothianidin 100 gm/100 kg seed,34.4%
"CC1(C)[C@H](C(=O)O[C@H](C#N)c2cccc(Oc3ccccc3)c2)[C@@H]1/C=C(\Cl)C(F)(F)F [λ-cyhalothrin, [1 alpha (s), 3 alpha(z)]-cyano(3-phenoxyphenyl)methyl-3-(2-chloro-3,3,3-trifluoro-1-propenyl)-2,2-dimethylcyclopropane carboxylate]",Vigor at 12 DAP,corn plants; seed treatment 125 g AI/100 kg corn seed,9.0
same,Vigor at 12 DAP,corn plants; seed treatment 250 g AI/100 kg corn seed,8.3
same,Vigor at 12 DAP,corn plants; seed treatment 500 g AI/100 kg corn seed,8.3
same,Plant Defol. 3 DAI,black cutworm larvae [1]; [3],4.3
same,Plant Defol. 7 DAI,black cutworm larvae [1]; [3],5.0
same,Plant Defol. 10 DAI,black cutworm larvae [1]; [3],3.3
same,% Stand Reduct'n 3 DAI,black cutworm larvae [1]; [4],3.0%
same,Plant Defol. 3 DAI,black cutworm larvae [1]; [4],3.7
same,% Stand Reduct'n 7 DAI,black cutworm larvae [1]; [4],3.0%
same,% Stand Reduct'n 7 DAI,"black cutworm larvae [1]; seed treatment 250 g/100 kg seed, listed as lambda-cyhalothrin",3%
same,Plant Defol. 7 DAI,black cutworm larvae [1]; [4],2.7
same,% Stand Reduct'n 10 DAI,black cutworm larvae [1]; [4],3.0%
same,Plant Defol. 10 DAI,black cutworm larvae [1]; [4],1.7
same,% Stand Reduct'n 3 DAI,black cutworm larvae [1]; [5],0.0%
same,Plant Defol. 3 DAI,black cutworm larvae [1]; [5],2.0
same,% Stand Reduct'n 7 DAI,black cutworm larvae [1]; [5],0.0%
same,% Stand Reduct'n 7 DAI,"black cutworm larvae [1]; seed treatment 500 g/100 kg seed, listed as lambda-cyhalothrin",0%
same,Plant Defol. 7 DAI,black cutworm larvae [1]; [5],2.3
same,% Stand Reduct'n 10 DAI,black cutworm larvae [1]; [5],0.0%
same,Plant Defol. 10 DAI,black cutworm larvae [1]; [5],1.0
